Results reported in EP2371816A1, “Aminocyclohexenone, their preparation and use as medicament against oxidative stress” (ABIOGEN PHARMA S.p.A., priority 2010, dated 2011).

Assays:
[1] = TEAC method (Trolox Equivalent Antioxidant Capacity Assay); details: ratio of gradient to gradient of reference (trolox); 37 °C, 650 nm, pH 4.5
From the text: This assay is used to measure the total antioxidant activity of pure substances, biological fluids and plant compounds and is based on the reaction of antioxidants with the cation radical ABTS^˙+ (2,2'-azinobis(3-ethylbenzothiazolin-6-sulphonate)). This cation radical is metastable and has to be generated just before the experiment by reacting ABTS with hydrogen peroxide in the presence of HRP.
This radical can be reduced, with consequent loss of absorbance, by an antioxidant whose scavenging capacity can be measured spectrophotometrically at 650 nm. The test is carried out at 37 °C and the results are obtained from a comparison with Trolox (a synthetic antioxidant and hydrophilic analogue of vitamin E).
The ABTS solution S1 was prepared as follows: • 20 mg of ABTS were added to 50 mM of citric acid buffer (40 ml) at pH=4.5 and to the resulting solution there was added an aqueous solution of HRP (4.4 mg, 400 µl) and an aqueous solution of H2O2 (10 µl of a 30% solution diluted with 16.3 ml of water).
For each of the compounds (2), (6) and (7), as synthesized above, there was prepared a 600 µM solution in water, methanol or DMSO according to its solubility, as well as a Trolox solution as reference.
Each solution was diluted to produce 6 solutions each at a concentration between 25 µM and 300 µM. From each of the diluted and divided solutions, there were withdrawn 20 µl to which 200 µl of solution S1 were then added.
The decrease in absorbance of each solution thus obtained was monitored at 650 nm until a stable value was reached (about 90 minutes).
For each set of 6 solutions and for the reference trolox solution, the absorption was given in graph form as a function of the amount of compound (nmol) in the solution. The gradient of the straight line obtained by linear interpolation was determined according to the least squares method. The TEAC value of each compound of the invention is given in the table below and is expressed as the ratio between the gradient of the resulting straight line and the gradient of the reference (trolox) straight line.

[2] = Acute toxicity study, intraperitoneal single dose (OECD guideline no. 420); type: in vivo; details: result in words, with reference to Example 13
Procedure: This study was carried out with the purpose of investigating the toxicity of a single dose of the listed compounds administered to ICR (CD-1) female mice. According to the current OECD guideline no.
The mice used were all female and were treated by intraperitoneal injection administration. The animals were observed individually and regularly for the first 4 hours and within 24 hours after administration, and then twice a day for the whole observation period. As soon as the animals were stabilized, observations at the weekend were undertaken once only during the day.
The evaluated parameters included the survival, body weight development, variations in skin and fur, changes in ocular, conjunctival and buccal mucous membranes, changes in activities of the respiratory, circulatory, autonomous and central nervous systems, changes in somatomotor activity and in behaviour.
Any appearance of tremors, convulsions, salivation, diarrhea, lethargy, drowsiness and coma were attentively and regularly monitored. At the end of the observation period, a post-mortem was carried out on all the animals.

[3] = mouse, in vivo
Procedure: The ability of the compounds of the invention to penetrate the brain was investigated by measuring their brain/plasma (B/P) concentration ratio in mice following intraperitoneal administration.
Female CD-1 mice were used (n=3 for each time period) and received the compounds of the invention by intraperitoneal administration, in 25 mg/kg doses in a 0.5% NaHCO3 buffer (pH 8.3). At predefined intervals following said administration, i.e. 5, 15, 30 and 60 minutes, the mice were killed and both plasma and total brain tissue were collected.
Specifically, after anaesthesia with ether, the animals were bled by blood withdrawal from the abdominal aorta then immediately decapitated. The blood samples were collected into plasma separator tubes containing Li-Heparin as anticoagulant and centrifuged. The resulting plasma was then stored at -20 °C. The brain was rapidly removed from the cranium and weighed, subsequently frozen and stored at -20 °C before treatment by homogenization and HPLC analysis.
The plasma was thawed and mixed with an equal volume of the extraction solution. This extraction solution was a mixture of aqueous and organic solvents whose composition had been previously determined by HPLC undertaken for each analyte.
1 ml of solution was then extracted by adding 20 µl of 70% HClO4 then centrifuged at 15,500g for 5 minutes and injected into the HPLC.
Each brain was thawed and homogenized with the extraction solution to provide a final composition of 4 ml/1g of tissue by means of an Ultra-Turrax blender and sonicated for 5 minutes. After centrifugation of the homogenate at 15,500g for 5 minutes, the resulting solution was treated with HClO4, as indicated for the plasma.
Specific chromatographic conditions had been developed for each analyte, the calibration curve being constructed for plasma and brain homogenate.

[4] = pH at the semi-neutralization point of titration (pKa); type: physicochemical; details: titration with 0.1 N NaOH or HCl; for pKa: read-out: Acid dissociation constant: pKa
Procedure: The following equipment was used during the implementation of all the examples: • for melting point determination a Buchi B-540 instrument was used; • for pH determination at the semi-neutralization point of titration (pKa) a Mettler Toledo DL-50 instrument was used with a 0.1 N xNaOH or HCl solution; • the ^1H-NMR spectra were recorded at 300 MHz and the ^13C-NMR spectra were recorded at 75 MHz using a Varian Unity 300 instrument; • spectrophotometric measurements were carried out using a Lambda Perkin Elmer 15 UV/Vis spectrophotometer for the DPPH assay and a Wallac Victor 1420 multilabel counter spectrophotometer.

[5] = tested on: cerebral oxidative stress induced in mice by doxorubicin; assay: In vivo assay of cerebral oxidative stress induced in mice by doxorubicin; details: for Brain/BWi / CAT/pr / GPX/pr / GSH/pr / GST/pr / Prot. Hmg / Prot. Ox/pr / SOD/pr: % variation relative to the vehicle, 50 mg/kg IP x3 days (D = doxorubicin alone); for Brain/BWi / CAT/pr / GPX/pr / GSH/pr / GST/pr / Prot. Hmg / Prot. Ox/pr / SOD/pr / Mean % variation relative to the vehicle: healthy animals; for Mean % variation relative to the vehicle: 50 mg/kg IP days 0, 1 and 2, mean over all parameters, approximate safety index (D = doxorubicin alone)
Procedure: The assay was carried out on compounds (1) and (3)-(6) and on edaravone (E) as comparative compound.
10 mice were used for each treatment group. For each compound 50 mg/kg were administered intraperitoneally (IP) for three consecutive days (day 0, 1 and 2); half the animals (5) also received IP 16.7 mg/kg of doxorubicin immediately after the first treatment (day 0). On the day after the last administration (day 3) the animals were killed by neck dislocation and the brains were removed, weighed and frozen in liquid nitrogen.
For the analyses of oxidative stress, 100 mg/ml of brain homogenate was prepared in Hebe buffer (pH 7.4 EDTA/HEPES^(**)) containing a mixture of enzyme inhibitors (Leupeptin, Pepstatin, Aprotinin, BHA). • ^(*) Hypotonic Extraction Buffer • ^(**) 4-2-hydroxyethyl-1-piperazinyl-ethanesulphonic acid
The evaluation parameters were: • BrW/BWi: ratio between final brain weight and initial body weight (day 0); • Prot. Hmg: total proteins in the homogenate (BCA method, i.e. bicinchoninic acid); • Prot. Ox: oxidized proteins in the Hmg by means of a colorimetric method using […] (DNPH); • GSH: reduced glutathione in the supernatant (sn) of the Hmg, obtained after precipitation with metaphosphoric acid (MPA), by means of a colorimetric method using […] (DTNB); • CAT: catalase in the Hmg by a colorimetric method using potassium dichromate; • SOD: superoxide dismutase by a colorimetric method using SOD Reagent (xanthine, EDTA, nitroblue tetrazole, Na2CO3, BSA, i.e. bovine serum albumin); • GST: glutathione S-transferase in the supernatant by a colorimetric method using chlorodinitrobenzene (CDNB) and GSH; and • GPx: glutathione peroxidase in the supernatant after addition of GSH and tert butyl hydroperoxide (t-BuOOH), heating and precipitation with MPA; followed by GSH method with DTNB.
All the parameters, with the exclusion of Brain/BWi and Prot. Hmg, were normalized for total Hmg proteins (Table 3). The D value standard deviations and the % incidence relative to V are given in italics.
The mean % effect, on all the parameters simultaneously, of the triple treatment in the healthy animals, as mean percentage variation relative to the vehicle (table 4). This value is useful as an approximate safety index of the oxidative state of the brain, i.e. the capacity of the compounds of the invention not to alter cerebral homeostasis in healthy animals.
The effect of the tested compounds on the "oxidized" animals was given as % inhibition relative to the percentage variation due to doxorubicin alone. The effect of the compounds on the oxidized animals can be expressed both as a function of the values of the vehicle (healthy, vehicle only) and as a function of the value of its own control (healthy, compound only): • Vehicle: percentage [(Compound+D)/V]x100/[(V+D)/V]x100 • Its own: percentage [(Compound+D)/Compound]x100/[(V+D)/V]x100

[6] = % inhibition relative to variation due to doxorubicin alone, oxidized animals, as function of its own control
[7] = % inhibition relative to variation due to doxorubicin alone, oxidized animals, as function of vehicle

SMILES | TEAC [1] | toxicity evaluation in vivo (tolerability) [2] | bioavailability at the target site / crossing of the blood-brain barrier [3] | Brain/BWi [5] | CAT/pr [5] | GPX/pr [5] | GSH/pr [5] | GST/pr [5] | Prot. Hmg [5] | Prot. Ox/pr [5] | SOD/pr [5] | Mean % variation relative to the vehicle [5] | pKa [4] | further results
O=C1C=C(NN2CCCCC2)CC(c2ccccc2)C1 (stereo not drawn) [(2), 5-phenyl-3-(piperidin-1-ylamino)cyclohex-2-enone] | 1.67 |  |  |  |  |  |  |  |  |  |  |  |  | 
CC1(C)CC(=O)C=C(N(O)Cc2cccnc2)C1 [(4), 3-(hydroxy(pyridin-3-ylmethyl)amino)-5,5-dimethylcyclohex-2-enone] |  | well tolerated | particularly bioavailable, as well as able to cross the blood-brain barrier in effective amounts | -0.1% | -9.3% | 0.1% | -0.2% | 0.5% | 1.2% | -10.3% | 0.0% | 0.0% |  | Acid dissociation constants: pKa1 [4]: 2.70; Acid dissociation constants: pKa2 [4]: 6.47; Brain/BWi its own [5, 6]: 56.5%; CAT/pr its own [5, 6]: -43.2%; GPX/pr its own [5, 6]: -6.1%; GSH/pr its own [5, 6]: 35.2%; GST/pr its own [5, 6]: -34.1%; Prot. Hmg its own [5, 6]: -38.6%; Prot. Ox/pr its own [5, 6]: 57.6%; SOD/pr its own [5, 6]: 73.4%; Brain/BWi vehicle [5, 7]: 79.7%; CAT/pr vehicle [5, 7]: 9.1%; GPX/pr vehicle [5, 7]: -8.1%; GSH/pr vehicle [5, 7]: 39.2%; GST/pr vehicle [5, 7]: -45.1%; Prot. Hmg vehicle [5, 7]: 1.2%; Prot. Ox/pr vehicle [5, 7]: -106.4%; SOD/pr vehicle [5, 7]: 73.4%
CC1(C)CC(=O)C=C(N(O)Cc2ccccn2)C1 [(5), 3-(hydroxy(pyridin-2-ylmethyl)amino)-5,5-dimethylcyclohex-2-enone] |  | well tolerated | particularly bioavailable, as well as able to cross the blood-brain barrier in effective amounts | -3.3% | -6.2% | 1.5% | -0.9% | 3.1% | 0.7% | -5.5% | -2.3% | -0.4% | 4.2 | 
CC1(C)CC(=O)C=C(NN2CCOCC2)C1 [(7), 5,5-dimethyl-3-(morpholinoamino)cyclohex-2-enone] | 0.8 | well tolerated | particularly bioavailable, as well as able to cross the blood-brain barrier in effective amounts |  |  |  |  |  |  |  |  |  | 2.94 | 
COc1cccc2c1C(=O)c1c(O)c3c(c(O)c1C2=O)C[C@@](O)(C(=O)CO)C[C@@H]3O[C@H]1C[C@H](N)[C@H](O)[C@H](C)O1 [D, doxorubicin, reference compound] |  |  |  |  | -13.2% | -9.9% | -12.5% | -9.1% | 8.3% | 17.2% | -14.3% | -11.4% |  | Brain/BWi ([5]; 50 mg/kg): -6.9%; Brain/BWi ([5]; listed as Doxo, 50 mg/kg): 6.9%
O=C1O[C@H]([C@@H](O)CO)C(O)=C1O [vitamin C, reference compound] | 0.9 |  |  |  |  |  |  |  |  |  |  |  |  | 
